The supplement of paper PMC11451515

Legend:
Settings in all cases: 48 h
SEM cells [1] = test: AUC of viability dose-response curve (% viability x log10 dose units); higher = less sensitive
Method in brief: (§1)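 Leukemia cells adapted to each medium were seeded in 1536-well plates (500 or 1000 cells/well). They were dosed with library compounds in DMSO at 11 threefold doses, 47 μM to 0.79 nM, for 48 h at 37°C. CellTiter-Glo One luminescence was normalised per plate to DMSO and cell-free wells. Area under the curve was integrated by trapezoidal rule over log10 doses on a four-parameter log-logistic fit; curves exceeding full viability were scaled and curves failing quality control removed.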

NOMO1 [2] = test: as above
Method in brief: as §1

P12-Ichikawa [3] = test: as above
Method in brief: as §1

SEM cells [4] = test: cell viability relative to DMSO control; higher = less cytotoxic
Method in brief: (§2)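 Viability is expressed as a percentage of DMSO wells within each plate, and cell-free wells serve as background. Seeding densities in the 1536-well plates (5 μl) were 500 cells/well for NOMO1 or SEM leukemia cells and 1000 cells/well for P12-Ichikawa. Each line was adapted for at least four passages in each medium. Library compounds in DMSO were pin-dosed at 47 μM to 0.79 nM (11 points, threefold), and CellTiter-Glo One luminescence was read after 48 h at 37°C.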

NOMO1 [5] = test: as above
Method in brief: as §2

P12-Ichikawa [6] = test: as above
Method in brief: as §2

FC(F)(F)c1ccc(Nc2nc3cc(Oc4ccnc(-c5ncc(C(F)(F)F)[nH]5)c4)ccc3[nH]2)cc1
AUC of viability dose-response curve
Settings | NOMO1 [2] | P12-Ichikawa [3] | SEM cells [1]
HPLM + 10% dialyzed FBS | 472 | 465 | 442
RPMI 5 mM glucose + 10% FBS | 466 | 460 | 439
RPMI 5 mM glucose + 10% dialyzed FBS | 476 | 458 | 420

cell viability [%]
Settings | NOMO1 [5] | P12-Ichikawa [6] | SEM cells [4]
HPLM + 10% dialyzed FBS, 0.000781 µM | – | 118 | 108
HPLM + 10% dialyzed FBS, 0.00234 µM | – | 111 | 97.7
HPLM + 10% dialyzed FBS, 0.00702 µM | – | 115 | 112
HPLM + 10% dialyzed FBS, 0.0211 µM | – | 120 | 116
HPLM + 10% dialyzed FBS, 0.0632 µM | – | 122 | 121
HPLM + 10% dialyzed FBS, 0.19 µM | – | 115 | 117
HPLM + 10% dialyzed FBS, 0.569 µM | – | 117 | 118
HPLM + 10% dialyzed FBS, 1.71 µM | – | 123 | 121
HPLM + 10% dialyzed FBS, 5.12 µM | – | 118 | 106
HPLM + 10% dialyzed FBS, 15.4 µM | – | 112 | 82.7
HPLM + 10% dialyzed FBS, 46.1 µM | – | 71.3 | 18.4
RPMI 5 mM glucose + 10% FBS, 0.000781 µM | – | 119 | 120
RPMI 5 mM glucose + 10% FBS, 0.00234 µM | – | 119 | 114
RPMI 5 mM glucose + 10% FBS, 0.00702 µM | – | 127 | 117
RPMI 5 mM glucose + 10% FBS, 0.0211 µM | – | 123 | 113
RPMI 5 mM glucose + 10% FBS, 0.0632 µM | – | 130 | 125
RPMI 5 mM glucose + 10% FBS, 0.19 µM | – | 122 | 117
RPMI 5 mM glucose + 10% FBS, 0.569 µM | – | 127 | 100
RPMI 5 mM glucose + 10% FBS, 1.71 µM | – | 137 | 120
RPMI 5 mM glucose + 10% FBS, 5.12 µM | – | 130 | 114
RPMI 5 mM glucose + 10% FBS, 15.4 µM | – | 111 | 80.8
RPMI 5 mM glucose + 10% FBS, 46.1 µM | – | 67.8 | 4.03
RPMI 5 mM glucose + 10% dialyzed FBS, 0.000781 µM | 109 | – | –
RPMI 5 mM glucose + 10% dialyzed FBS, 0.00234 µM | 124 | – | –
RPMI 5 mM glucose + 10% dialyzed FBS, 0.00702 µM | 136 | – | –
RPMI 5 mM glucose + 10% dialyzed FBS, 0.0211 µM | 133 | – | –
RPMI 5 mM glucose + 10% dialyzed FBS, 0.0632 µM | 136 | – | –
RPMI 5 mM glucose + 10% dialyzed FBS, 0.19 µM | 132 | – | –
RPMI 5 mM glucose + 10% dialyzed FBS, 0.569 µM | 131 | – | –
RPMI 5 mM glucose + 10% dialyzed FBS, 1.71 µM | 145 | – | –
RPMI 5 mM glucose + 10% dialyzed FBS, 5.12 µM | 130 | – | –
RPMI 5 mM glucose + 10% dialyzed FBS, 15.4 µM | 148 | – | –
RPMI 5 mM glucose + 10% dialyzed FBS, 46.1 µM | 89.3 | – | –

CCC1=C[C@@H]2CN(C1)Cc1c([nH]c3ccccc13)[C@@](C(=O)OC)(c1cc3c(cc1OC)N(C)[C@H]1[C@@](O)(C(=O)OC)[C@H](OC(C)=O)[C@]4(CC)C=CCN5CC[C@]31[C@@H]54)C2
AUC of viability dose-response curve
Settings | NOMO1 [2] | P12-Ichikawa [3] | SEM cells [1]
HPLM + 10% dialyzed FBS | 256 | 202 | 244
RPMI 5 mM glucose + 10% FBS | 259 | 182 | 187
RPMI 5 mM glucose + 10% dialyzed FBS | 260 | 238 | 241

cell viability [%]
Settings | NOMO1 [5] | P12-Ichikawa [6] | SEM cells [4]
HPLM + 10% dialyzed FBS, 0.000781 µM | 127 | 106 | 119
HPLM + 10% dialyzed FBS, 0.00234 µM | 119 | 110 | 117
HPLM + 10% dialyzed FBS, 0.00702 µM | 108 | 94.4 | 110
HPLM + 10% dialyzed FBS, 0.0211 µM | 96.9 | 85.4 | 92.7
HPLM + 10% dialyzed FBS, 0.0632 µM | 49.3 | 36.2 | 75.9
HPLM + 10% dialyzed FBS, 0.19 µM | 34.5 | 15.4 | 32
HPLM + 10% dialyzed FBS, 0.569 µM | 38 | 15.9 | 25.5
HPLM + 10% dialyzed FBS, 1.71 µM | 34.5 | 12.6 | 24.1
HPLM + 10% dialyzed FBS, 5.12 µM | 38.4 | 12.8 | 23.6
HPLM + 10% dialyzed FBS, 15.4 µM | 47 | 8.96 | 26.7
HPLM + 10% dialyzed FBS, 46.1 µM | 27.4 | 7.62 | 17.3
RPMI 5 mM glucose + 10% FBS, 0.000781 µM | 106 | 108 | –
RPMI 5 mM glucose + 10% FBS, 0.00234 µM | 98.3 | 108 | –
RPMI 5 mM glucose + 10% FBS, 0.00702 µM | 98.9 | 96.6 | –
RPMI 5 mM glucose + 10% FBS, 0.0211 µM | 99.3 | 59.8 | –
RPMI 5 mM glucose + 10% FBS, 0.0632 µM | 70.5 | 29.6 | –
RPMI 5 mM glucose + 10% FBS, 0.19 µM | 20.6 | 16.2 | –
RPMI 5 mM glucose + 10% FBS, 0.569 µM | 21.1 | 18.3 | –
RPMI 5 mM glucose + 10% FBS, 1.71 µM | 23.4 | 16.5 | –
RPMI 5 mM glucose + 10% FBS, 5.12 µM | 22.4 | 11 | –
RPMI 5 mM glucose + 10% FBS, 15.4 µM | 29.2 | 9.49 | –
RPMI 5 mM glucose + 10% FBS, 46.1 µM | 18.9 | 7.18 | –
RPMI 5 mM glucose + 10% dialyzed FBS, 0.000781 µM | 120 | 110 | 108
RPMI 5 mM glucose + 10% dialyzed FBS, 0.00234 µM | 114 | 100 | 106
RPMI 5 mM glucose + 10% dialyzed FBS, 0.00702 µM | 114 | 99.7 | 99.7
RPMI 5 mM glucose + 10% dialyzed FBS, 0.0211 µM | 107 | 89.4 | 86.5
RPMI 5 mM glucose + 10% dialyzed FBS, 0.0632 µM | 86.5 | 59.2 | 62.9
RPMI 5 mM glucose + 10% dialyzed FBS, 0.19 µM | 18.8 | 21.7 | 30
RPMI 5 mM glucose + 10% dialyzed FBS, 0.569 µM | 25.7 | 29.3 | 23.9
RPMI 5 mM glucose + 10% dialyzed FBS, 1.71 µM | 26.5 | 25.4 | 22
RPMI 5 mM glucose + 10% dialyzed FBS, 5.12 µM | 29 | 22.4 | 24.9
RPMI 5 mM glucose + 10% dialyzed FBS, 15.4 µM | 27.8 | 13.9 | 26.3
RPMI 5 mM glucose + 10% dialyzed FBS, 46.1 µM | 20.5 | 10.6 | 12.4

C#CCN(C)[C@H](C)Cc1ccccc1
AUC of viability dose-response curve
Settings | NOMO1 [2] | P12-Ichikawa [3] | SEM cells [1]
HPLM + 10% dialyzed FBS | 401 | 431 | 401
RPMI 5 mM glucose + 10% FBS | 385 | 413 | 410
RPMI 5 mM glucose + 10% dialyzed FBS | 410 | 402 | 407

cell viability [%]
Settings | NOMO1 [5] | P12-Ichikawa [6] | SEM cells [4]
HPLM + 10% dialyzed FBS, 0.000781 µM | 88.2 | 92.5 | 32.3
HPLM + 10% dialyzed FBS, 0.00234 µM | 89.6 | 93.5 | 83.6
HPLM + 10% dialyzed FBS, 0.00702 µM | 88.5 | 93.7 | 87.3
HPLM + 10% dialyzed FBS, 0.0211 µM | 87.2 | 89.8 | 83.5
HPLM + 10% dialyzed FBS, 0.0632 µM | 76.7 | 106 | 70.2
HPLM + 10% dialyzed FBS, 0.19 µM | 79.7 | 93 | 91.8
HPLM + 10% dialyzed FBS, 0.569 µM | 85.6 | 73.2 | 93.1
HPLM + 10% dialyzed FBS, 1.71 µM | 83 | 89.5 | 90.2
HPLM + 10% dialyzed FBS, 5.12 µM | 92 | 92.7 | 89.5
HPLM + 10% dialyzed FBS, 15.4 µM | 79.8 | 80.1 | 87.2
HPLM + 10% dialyzed FBS, 46.1 µM | 65.1 | 88.3 | 92.5
RPMI 5 mM glucose + 10% FBS, 0.000781 µM | 82.2 | 82.9 | 34.7
RPMI 5 mM glucose + 10% FBS, 0.00234 µM | 82.8 | 82.3 | 91.5
RPMI 5 mM glucose + 10% FBS, 0.00702 µM | 82 | 88.9 | 103
RPMI 5 mM glucose + 10% FBS, 0.0211 µM | 85.4 | 83.7 | 107
RPMI 5 mM glucose + 10% FBS, 0.0632 µM | 77 | 92.2 | 83.4
RPMI 5 mM glucose + 10% FBS, 0.19 µM | 83.9 | 92.7 | 95.9
RPMI 5 mM glucose + 10% FBS, 0.569 µM | 79.4 | 89.3 | 62.6
RPMI 5 mM glucose + 10% FBS, 1.71 µM | 76 | 82.8 | 70.9
RPMI 5 mM glucose + 10% FBS, 5.12 µM | 82.9 | 81.5 | 95.7
RPMI 5 mM glucose + 10% FBS, 15.4 µM | 78.9 | 87.9 | 86.3
RPMI 5 mM glucose + 10% FBS, 46.1 µM | 77.5 | 89 | 90.5
RPMI 5 mM glucose + 10% dialyzed FBS, 0.000781 µM | 77.6 | 79.3 | 27.1
RPMI 5 mM glucose + 10% dialyzed FBS, 0.00234 µM | 86.1 | 88.6 | 89.6
RPMI 5 mM glucose + 10% dialyzed FBS, 0.00702 µM | 84.2 | 83.1 | 99.3
RPMI 5 mM glucose + 10% dialyzed FBS, 0.0211 µM | 95.6 | 86.5 | 97.9
RPMI 5 mM glucose + 10% dialyzed FBS, 0.0632 µM | 85 | 83.8 | 70.8
RPMI 5 mM glucose + 10% dialyzed FBS, 0.19 µM | 94 | 88.3 | 89.6
RPMI 5 mM glucose + 10% dialyzed FBS, 0.569 µM | 83.5 | 93.5 | 81.1
RPMI 5 mM glucose + 10% dialyzed FBS, 1.71 µM | 80 | 82 | 86.9
RPMI 5 mM glucose + 10% dialyzed FBS, 5.12 µM | 92.2 | 80.9 | 89.1
RPMI 5 mM glucose + 10% dialyzed FBS, 15.4 µM | 83.6 | 80.2 | 93.8
RPMI 5 mM glucose + 10% dialyzed FBS, 46.1 µM | 82.7 | 79.5 | 86
